Like-named read-outs stand apart in the source and are kept apart here.
Assays:
in vitro = conditions: PAMPA, pH 7.4
GABAAR [1] = conditions: 3H-flunitrazepam, rat brain extract; for IC50: read-out: GABAAR binding IC50
female A/J mice = experiment: Methacholine-induced airway hyperresponsiveness, double chamber plethysmograph; format: in vivo, mouse; conditions: nebulized 7.2 mg/kg, then five nebulized methacholine challenges, vs vehicle
[2] = test system: guinea pig airway smooth muscle; experiment: Ex vivo airway smooth muscle relaxation, substance P-contracted tracheal rings; conditions: 25 μM, vs vehicle
[3] = test system: female Swiss Webster mice; experiment: Rotarod sensorimotor inhibition; format: in vivo, mouse; conditions: diazepam 8 mg/kg
GABAAR [4] = conditions: read-out: GABAAR binding IC50; reported earlier; cited from earlier work
[5] = Microsomal stability phase 1; format: in vitro ADME; conditions: human liver S9, NADPH, 10 μM compound
[6] = Metabolic stability phase 2; format: in vitro ADME; conditions: human liver S9, UDP-glucuronic acid, 10 μM compound
[7] = Metabolic stability phase 2; format: in vitro ADME; conditions: mouse liver S9, UDP-glucuronic acid, 10 μM compound
[8] = cited from earlier work
[9] = Microsomal stability phase 1; format: in vitro ADME; conditions: mouse liver S9, NADPH, 10 μM compound
[10] = test system: female Swiss Webster mice; conditions: oral dosing up to 1000 mg/kg; cited from earlier work

CCOC(=O)c1ncn2c1C1(CC1)N=C(c1ccccc1F)c1cc(Cl)ccc1-2 [4g]
Papp (in vitro): 2.51 ×10⁻⁶ cm/s
GABAAR binding (in words) (GABAAR [1]): weak GABAAR ligands

CCOC(=O)c1ncn2c1C1(CC1)N=C(c1ccccc1F)c1cc(C3CC3)ccc1-2 [4i, Ethyl 8-Cyclopropyl-6-(2-fluorophenyl)spiro-[benzo[f]imidazo[1,5-α][1,4]diazepine-4,1′-cyclopropane]-3-carboxylate]
Papp (in vitro): 12.6 ×10⁻⁶ cm/s

O=C1Nc2ccc(Br)cc2C(c2ccccc2F)=NC12CCCCC2 [3f]
Papp (in vitro): 0.0794 ×10⁻⁶ cm/s
GABAAR binding (in words) (GABAAR [1]): no significant binding

CCOC(=O)c1ncn2c1C(C)(C)N=C(c1ccccc1F)c1cc(Br)ccc1-2 [4a]
GABAAR binding (in words) (GABAAR [1]): Some activity was retained
IC50 (GABAAR [1]): 733 nM

CC1(C)N=C(c2ccccc2F)c2cc(Br)ccc2-n2cnc(C(=O)O)c21 [5a]
GABAAR binding (in words) (GABAAR [1]): did not show strong GABAAR binding
IC50 (GABAAR [1]): 4050 nM
effect on specific airway resistance (sRaw) (female A/J mice): little to no change of sRaw values

CC1(C)N=C(c2ccccc2F)c2cc(Br)ccc2NC1=O [3a, 7-Bromo-5-(2-fluorophenyl)-3,3-dimethyl-1,3-dihydro-2H-benzo[e][1,4]diazepin-2-one]
IC50 (GABAAR [1]): 1250 nM

O=C1Nc2ccc(Cl)cc2C(c2ccccc2F)=NC12CC2 [3g]
IC50 (GABAAR [1]): 665 nM

O=C(O)c1ncn2c1C1(CC1)N=C(c1ccccc1F)c1cc(Cl)ccc1-2 [5g]
GABAAR binding (in words) (GABAAR [1]): weak GABAAR ligands

O=C1Nc2ccc(Br)cc2C(c2ccccc2F)=NC12CC2 [3c]
IC50 (GABAAR [1]): 42 nM

CCOC(=O)c1ncn2c1C1(CC1)N=C(c1ccccc1F)c1cc(Br)ccc1-2 [4c, Ethyl 8-bromo-6-(2-fluorophenyl)spiro[benzo[f]imidazo[1,5-α][1,4]diazepine-4,1′-cyclopropane]-3-carboxylate]
IC50 (GABAAR [1]): 87 nM

O=C1Nc2ccc(Br)cc2C(c2ccccc2F)=NC12CCCC2 [3e]
Papp (in vitro): 0.158 ×10⁻⁶ cm/s
GABAAR binding (in words) (GABAAR [1]): no significant binding

O=C1Nc2ccc(Br)cc2C(c2ccccc2F)=NC12CCC2 [3d]
Papp (in vitro): 3.16 ×10⁻⁶ cm/s
IC50 (GABAAR [1]): 2040 nM

O=C(O)c1ncn2c1C1(CCC1)N=C(c1ccccc1F)c1cc(Br)ccc1-2 [5d]
relaxation of constricted airway smooth muscle ([2]; at 60 min): weak airway smooth muscle relaxation
IC50 (GABAAR [1]): 1830 nM

O=C(O)c1ncn2c1C1(CC1)N=C(c1ccccc1F)c1ccccc1-2 [5j, 6-(2-Fluorophenyl)spiro[benzo[f]imidazo[1,5-α][1,4]diazepine-4,1′-cyclopropane]-3-carboxylic Acid]
relaxation of constricted airway smooth muscle ([2]; at 30 min): significant relaxation
IC50 (GABAAR [1]): 289 nM

CN1C(=O)CN=C(c2ccccc2)c2cc(Cl)ccc21 [diazepam]
sensorimotor inhibition on rotarod [3]: rapid and significant loss of sensorimotor coordination

O=C(O)c1ncn2c1C1(CC1)N=C(c1ccccc1F)c1cc(C3CC3)ccc1-2 [5i]
GABAAR binding (in words) (GABAAR [1]): weak GABAAR ligands
IC50 (GABAAR [1]): 1830 nM

CCOC(=O)c1ncn2c1C1(CCC1)N=C(c1ccccc1F)c1cc(Br)ccc1-2 [4d]
Papp (in vitro): 6.31 ×10⁻⁶ cm/s
GABAAR binding (in words) (GABAAR [1]): Some activity was retained
IC50 (GABAAR [1]): 859 nM

CCOC(=O)c1ncn2c1C1(CCCC1)N=C(c1ccccc1F)c1cc(Br)ccc1-2 [4e]
Papp (in vitro): 1.58 ×10⁻⁶ cm/s
GABAAR binding (in words) (GABAAR [1]): not active

O=C(O)c1ncn2c1C1(CCCCC1)N=C(c1ccccc1F)c1cc(Br)ccc1-2 [5f]
relaxation of constricted airway smooth muscle ([2]; at 30 min): significant relaxation

CCOC(=O)c1ncn2c1C1(CCCCC1)N=C(c1ccccc1F)c1cc(Br)ccc1-2 [4f]
Papp (in vitro): 1 ×10⁻⁶ cm/s
GABAAR binding (in words) (GABAAR [1]): not active
IC50 (GABAAR [1]): 6220 nM

C#Cc1ccc2c(c1)C(c1ccccc1F)=NC1(CC1)c1c(C(=O)O)ncn1-2 [5h, 8-Ethynyl-6-(2-fluorophenyl)spiro[benzo[f]-imidazo[1,5-α][1,4]diazepine-4,1′-cyclopropane]-3-carboxylic Acid]
relaxation of constricted airway smooth muscle ([2]; at 30 min): significant relaxation
IC50 (GABAAR [1]): 59 nM

O=C(O)c1ncn2c1C1(CC1)N=C(c1ccccc1F)c1cc(Br)ccc1-2 [5c, 8-Bromo-6-(2-fluorophenyl)-spiro[benzo[f]imidazo[1,5-α][1,4]diazepine-4,1′-cyclopropane]-3-carboxylic Acid]
relaxation of constricted airway smooth muscle ([2]; at 30 min): significant relaxation
IC50 (GABAAR [1]): 9 nM

C[C@@H]1N=C(c2ccccc2F)c2cc(Br)ccc2-n2cnc(C(=O)O)c21 [MIDD0301S]
IC50 (GABAAR [4]): 25 nM

C[C@H]1N=C(c2ccccc2F)c2cc(Br)ccc2-n2cnc(C(=O)O)c21 [MIDD0301]
remaining percentage of parent compound after 2 h, phase 1 [5]: 98 ± 4%
remaining percentage of parent compound after 2 h, phase 2 [6]: 77 ± 3%
remaining percentage of parent compound after 2 h, phase 2 [7]: 73 ± 8%
aqueous solubility (in words) ([8]; pH values between 3 and 6): significantly decreased
aqueous solubility (in words) ([8]; strong acidic, neutral and basic conditions): excellent solubility
remaining percentage of parent compound after 2 h, phase 1 [9]: 110 ± 14%
sensorimotor inhibition on rotarod [10]: absence of sensorimotor inhibition
IC50 (GABAAR [4]): 26 nM

— publication PMC10833105 (Journal of medicinal chemistry, 2023)
